In US10081662B2, “Modified relaxin B chain peptides” (The Florey Institute of Neuroscience and Mental Health, priority 2014, dated 2018):
Peptide text beside a SMILES is read from it.

Key:
RXFP2 = target: T1, RXFP2 (Homo sapiens, UniProt Q8WXD0); assay: cAMP reporter gene assay in HEK-293T cells transfected with RXFP2; assay type: cell-based; details: RXFP1- vs RXFP2-expressing HEK-293T cells; FIG. 3
T1 construct: expressed in transfected cells; host or cells: HEK-293T
Protocol: The ability of the relaxin-2 B chain peptide derivatives generated in Example 1 to stimulate cAMP response was also evaluated, using a cAMP reporter gene assay as described previously (Scott et al., 2006, J Biol Chem. 281, 34942-34954). HEK-293T cells co-transfected with either RXFP1 or RXFP2, or 7BP cells, and a pCRE β-galactosidase reporter plasmid were plated in 96-well plates. After 24 hours, the co-transfected cells were incubated with increasing concentrations of peptides in parallel to 10 nM of H2 relaxin or INSL3 for RXFP1- or RXFP2-transfected cells respectively. The amount of cAMP-driven β-galactosidase expression in each well was assessed with a colorimetric assay measuring absorbance at 570 nm on a microplate spectrophotometer. Ligand-induced cAMP stimulation was expressed as a percentage of maximal response of H2 relaxin or INSL3 for RXFP1 and RXFP2 cells respectively. Each data point was measured in triplicate and each experiment conducted independently at least three separate times. Statistical differences in pEC50 values were analyzed using one-way ANOVA coupled to Newman Keul's multiple comparison test for multiple group comparisons in GraphPad Prism 6.

RXFP1 = target: T2, RXFP1 (Homo sapiens, UniProt Q9HBX9); assay: cAMP reporter gene assay (pCRE β-galactosidase) in HEK-293T cells transfected with RXFP1; assay type: cell-based; details: FIG. 3A, ERK data not shown
T2 construct: expressed in transfected cells; host or cells: HEK-293T
T2 sequence (Q9HBX9 1-757): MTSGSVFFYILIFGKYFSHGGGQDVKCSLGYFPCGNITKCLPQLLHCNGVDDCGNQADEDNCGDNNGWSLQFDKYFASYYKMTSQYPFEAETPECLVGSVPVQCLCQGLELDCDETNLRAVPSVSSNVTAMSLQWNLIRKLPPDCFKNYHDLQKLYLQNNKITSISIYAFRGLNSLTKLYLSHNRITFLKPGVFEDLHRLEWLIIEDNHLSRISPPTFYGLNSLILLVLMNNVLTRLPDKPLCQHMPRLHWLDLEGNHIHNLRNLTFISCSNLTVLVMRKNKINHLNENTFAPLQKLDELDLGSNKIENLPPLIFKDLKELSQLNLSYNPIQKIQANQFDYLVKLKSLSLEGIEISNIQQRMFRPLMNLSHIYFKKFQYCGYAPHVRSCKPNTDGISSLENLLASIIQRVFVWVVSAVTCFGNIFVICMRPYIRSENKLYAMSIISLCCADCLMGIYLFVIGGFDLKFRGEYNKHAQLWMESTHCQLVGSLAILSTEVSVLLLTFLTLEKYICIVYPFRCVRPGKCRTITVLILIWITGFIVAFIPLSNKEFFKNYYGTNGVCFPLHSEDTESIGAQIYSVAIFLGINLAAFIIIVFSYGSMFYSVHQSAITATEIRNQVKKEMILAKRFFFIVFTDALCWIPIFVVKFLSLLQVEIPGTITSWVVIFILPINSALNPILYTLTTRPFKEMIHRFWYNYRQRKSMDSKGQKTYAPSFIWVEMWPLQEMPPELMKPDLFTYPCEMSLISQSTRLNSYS

MMP-2 = MMP-2 expression by gelatin zymography in human cardiac fibroblasts; assay type: cell-based; details: gelatin zymography and densitometry
[1] = system: mouse model of OVA-induced chronic allergic airway disease; assay: Mouse model of OVA-induced chronic allergic airway disease; assay type: in vivo; details: Balb/c mice
From the text: Seven to eight-week old male 129SV mice (which are sensitive to tissue injury and fibrosis) and age-matched female Balb/c mice (which are sensitive to changes in airway hyperresponsiveness) were used for the induction of isoproterenol-induced cardiomyopathy and ovalbumin-induced chronic allergic airways disease, respectively. 16 five week-old male C57BL/6 mice were used in the induction of prostate cancer growth. All animals were obtained from Monash Animal Services (Monash University, Clayton, Victoria, Australia) and housed under standard conditions (maintained on an 12 h light-12 h dark lighting cycle with free access to food and water) in the Department of Pharmacology Animal Room at Monash University.
Twenty-four hours after the last vehicle/drug administration, methacholine-induced airway reactivity was assessed by invasive plethysmography as described before (Locke et al. 2007, Am J Respir Mol Biol 36, 625-632; Royce et al. 2009, Endocrinology 150, 2692-2699). Mice were anaesthetized intraperitoneally with 200 μg/g ketamine and 10 μg/g xylazine. Tracheotomy was performed using an 18-gauge tracheotomy tube and jugular vein cannulated with a 0.61 9 0.28 mm polyethylene tube (Microtube Extrusions, North Rocks, NSW, Australia), Mice were then placed in a plethysmograph chamber (Buxco Research Systems, Wilmington, N.C., USA) where increasing concentrations of acetyl-β-methacholine (from 31.25 μg/kg to 500 μg/kg) were delivered intravenously in five doses. After every dose, airway resistance and compliance were measured (Biosystem XA version 2.7.9; Buxco Electronics Inc, Wilmington, N.C., USA). The change in airway resistance calculated by the maximal resistance after each dose minus baseline resistance (phosphate buffered saline alone) was plotted against each dose of methacholine evaluated.
The mid zone of the male mouse heart and largest lung lobe from female Balb/c mice were fixed in 10% neutral buffered formalin for 24-48 h before being processed and embedded routinely in paraffin wax. Representative sections of tissue, 3-5 um each, were taken and stained with either picrosirius red (Samuel et al. 2011 Lab Invest 91, 675-690) for the detection of interstitial collagen or Masson's trichrome (Royce et al, 2009, Endocrinology 150, 2692-2699) for the detection of subepithelial basement membrane collagen deposition).
Changes in picrosirius-red stained interstitial collagen or epithelial thickness and subepithelial collagen (fibrosis) around the airway lumen from Masson's trichrome-stained sections; which were all captured (at ×20 magnification) using a SPOT digital camera (Q Imaging, Burnaby, BC, Canada) and analysed with Image J 1.3 software (National Institutes of Health, Bethesda, Md.). Four to five fields per mid zone of the heart or 4-5 airways (of 150-350 μm in diameter) per mouse were assessed. Epithelial thickness and subepithelial collagen regions were traced with a digital pen and the thickness of each region calculated by the imaging software. Results were expressed as mean thickness ([…]) of the 4-5 airways sampled.
The apical region of the heart or second largest lung lobe from each mouse was treated as described previously (Samuel C S, et at., 2003, FASEB J 17, 121-123; Royce et at. 2009, Endocrinology 150, 2692-2699) for the determination of hydroxyproline content. Hydroxyproline values were estimated based on a standard curve constructed with serial dilutions of a 0.1 mg/mL stock of trans-4-hydroxyproline-L-proline (Sigma-Aldrich). Hydroxyproline values were then converted to collagen content as detailed previously (Samuel CS, et al. 2004. Endocrinology 145, 4125-4133) and, in turn, divided by the dry weight of each corresponding left ventricular or lung tissue assessed to yield collagen concentration (a measure of fibrosis).
The inventors also tested the fibrosis preventing activity of B7-33 C11.23S in a model of chronic allergic airway disease (AAD). […]

T1 sequence (Q8WXD0 whole entry): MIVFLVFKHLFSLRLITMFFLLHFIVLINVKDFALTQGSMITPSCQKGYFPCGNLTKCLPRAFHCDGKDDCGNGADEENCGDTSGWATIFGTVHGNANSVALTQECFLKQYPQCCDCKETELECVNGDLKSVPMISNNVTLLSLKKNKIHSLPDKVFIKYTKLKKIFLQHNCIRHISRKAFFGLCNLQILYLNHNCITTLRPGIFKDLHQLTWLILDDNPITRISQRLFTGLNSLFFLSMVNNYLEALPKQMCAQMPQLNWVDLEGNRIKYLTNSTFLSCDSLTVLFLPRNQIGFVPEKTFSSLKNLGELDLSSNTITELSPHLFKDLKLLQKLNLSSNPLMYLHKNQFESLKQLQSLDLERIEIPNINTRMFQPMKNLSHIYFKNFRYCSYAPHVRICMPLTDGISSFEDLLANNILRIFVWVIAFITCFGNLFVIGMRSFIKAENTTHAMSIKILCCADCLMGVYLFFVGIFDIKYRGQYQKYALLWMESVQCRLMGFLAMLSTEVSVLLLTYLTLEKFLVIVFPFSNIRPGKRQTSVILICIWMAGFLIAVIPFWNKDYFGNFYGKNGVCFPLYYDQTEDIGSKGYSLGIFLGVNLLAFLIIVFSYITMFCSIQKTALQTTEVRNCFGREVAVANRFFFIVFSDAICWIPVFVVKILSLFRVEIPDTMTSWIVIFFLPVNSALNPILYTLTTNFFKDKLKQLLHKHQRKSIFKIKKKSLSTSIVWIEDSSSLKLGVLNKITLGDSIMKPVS

CC[C@H](C)[C@H](NC(=O)[C@H](C)NC(=O)[C@@H](NC(=O)[C@H](CCC(N)=O)NC(=O)[C@H](C)NC(=O)[C@H](CCCNC(=N)N)NC(=O)[C@@H](NC(=O)[C@H](CC(C)C)NC(=O)[C@H](CCC(=O)O)NC(=O)[C@H](CCCNC(=N)N)NC(=O)CNC(=O)[C@H](CO)NC(=O)[C@H](CC(C)C)NC(=O)[C@H](CCCCN)NC(=O)[C@@H](NC(=O)[C@@H](N)C(C)C)[C@@H](C)CC)C(C)C)[C@@H](C)CC)C(=O)N[C@@H](CO)C(=O)NCC(=O)N[C@@H](CCSC)C(=O)N[C@@H](CO)C(=O)N[C@H](C(=O)N[C@@H](Cc1c[nH]c2ccccc12)C(=O)N[C@@H](CO)C(=O)N[C@@H](CCCCN)C(=O)N[C@@H](CCCNC(=N)N)C(=O)N[C@@H](CO)C(=O)N[C@@H](CC(C)C)C(N)=O)[C@@H](C)O [B7-33 C11.23S] (H-VIKLSGRELVRAQIAISGMSTWSKRSL-NH2)
Selectivity of cAMP stimulation, RXFP1 over RXFP2 (RXFP2): selective at RXFP1 over RXFP2
Activation of cAMP and ERK signalling pathways in HEK-RXFP1 cells (in words) (RXFP1): full agonist, but with poor potency
Induction of MMP-2 expression (MMP-2): levels similar to those induced by the native H2 relaxin
Airway hyper-responsiveness (change in airway resistance to methacholine) ([1]; OVA-induced increase, invasive plethysmography, FIG. 8D): attenuated
Mean airway epithelial thickness ([1]; compared to OVA treatment, FIG. 8B): significantly reduced
Total lung collagen content (hydroxyproline analysis) ([1]; relative to OVA treatment, FIG. 8C): normalised
